The target in assay [1] is T1, 5-HT1A human receptors (Homo sapiens, UniProt P08908).
T1 construct: expressed in transfected cells; host or cells: CHO cells
T1 sequence (P08908 1-422): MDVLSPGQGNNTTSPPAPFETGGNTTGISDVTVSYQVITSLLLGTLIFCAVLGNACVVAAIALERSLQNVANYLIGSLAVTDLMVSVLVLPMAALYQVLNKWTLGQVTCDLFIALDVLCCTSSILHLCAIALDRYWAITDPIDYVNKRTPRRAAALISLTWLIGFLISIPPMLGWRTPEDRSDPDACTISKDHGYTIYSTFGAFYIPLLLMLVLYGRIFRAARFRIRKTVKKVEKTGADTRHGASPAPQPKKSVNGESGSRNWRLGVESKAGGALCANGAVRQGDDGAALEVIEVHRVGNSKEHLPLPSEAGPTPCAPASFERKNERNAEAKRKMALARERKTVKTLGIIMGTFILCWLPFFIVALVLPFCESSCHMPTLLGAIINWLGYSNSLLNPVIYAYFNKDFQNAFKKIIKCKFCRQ
Kind of assay: 5-HT1A radioligand receptor binding assay ([3H]-8-OH-DPAT). Conditions: for inhibition at 0.1 µM: compound 10^−7 M, singlicate, [3H]-8-OH-DPAT 0.6-0.7 nM. The method, then: 5-HT1A, Radioligand Receptor Binding Assay
Membranes from CHO cells, expressing 5-HT1A human receptors were suspended in incubation buffer.
Binding assays were performed in MultiProbe 204 pipetting system (Packard), according to a predetermined mapping, consistent with the software Screen. The compounds were tested in singlicate at one concentration (10^−7 M) in a total volume of 1000 μl. 980 μl of diluted membranes, 10 μl DMSO or unlabelled ligand, and 10 μl of [^3H]-8-OH-DPAT (0.6-0.7 nM) were incubated for 60 minutes at 27° C. The reaction was stopped by rapid filtration through Tomtec Cell Harvester (48 wells) using Filtermat B (presoaked in 0.1% PEI) filters. Filters were washed with ice-cold 50 mM Tris-HCl (pH 7.4) buffer (9×700 μl), dried, covered with MeltiLex B/HS scintillator sheets (Wallac) and heated at 80° C. to 90° C. for about 10 minutes, transferred into plastic sample bags (Wallac), sealed and put into 1024 Beta Plate scintillation counter (Wallac). Non-specific binding was determined in the presence of 5-HT (10^−5 M).
The specific radioligand binding to the receptor was defined by the difference between total binding and non-specific binding, determined in the presence of an excess of unlabelled ligand. Results were expressed as percentage of control specific binding obtained in the presence of the compounds. The affinity values (IC50) for the compounds were obtained by a nonlinear least squares regression analysis on the basis of a one binding site model.

Assay [2] concerns the target T2, 5-HT1A receptor (CHO/5-HT1A cells) (Homo sapiens, UniProt P08908).
T2 construct: expressed in transfected cells; host or cells: CHO/5-HT1A cells
T2 sequence (P08908 1-422): T1 sequence (P08908 1-422)
Kind of assay: 5-HT1A functional assay (cAMP). The class given is cell-based. Conditions: 10 μM compound, % inhibition of the cAMP accumulation induced by 10 μM FSK, read-out: 5-HT1A cAMP % Inhibition (agonist activity). The protocol:
5-HT1A Functional Assay (cAMP)
CHO/5-HT1A cells were random seeded at a density of about 200,000/well in 24 well plates the day prior to the experiment. On the day of the experiment, cells were pretreated for 15 minutes at 37° C. with 500 μM isobutylmethylxantine (IBMX) dissolved in culture medium without serum. Wells were then divided in different groups in duplicate as follows: control, 10 μM FSK, 10 μM FSK+1 μM 5-HT as positive standard and 10 μM FSK+10 μM of the different compound under evaluation. Sample solutions were added and incubated for additional 15 minutes at 37° C. After incubation, medium was aspirated and the reaction stopped by adding 200 μl of lysis buffer. Plates were shaken for 5 minutes, then the lysate was removed and samples were stored at 4° C. until the day of the assay. For the cAMP evaluation, samples were properly diluted and the cAMP content was measured by an enzyme immunoassay system.
Results are expressed as % inhibition of the cAMP accumulation induced by 10 μM FSK.

Assay [3] concerns the target T3, D4 human receptors (Homo sapiens, UniProt P21917).
T3 construct: expressed in transfected cells; host or cells: CHO cells
T3 sequence (P21917 1-419): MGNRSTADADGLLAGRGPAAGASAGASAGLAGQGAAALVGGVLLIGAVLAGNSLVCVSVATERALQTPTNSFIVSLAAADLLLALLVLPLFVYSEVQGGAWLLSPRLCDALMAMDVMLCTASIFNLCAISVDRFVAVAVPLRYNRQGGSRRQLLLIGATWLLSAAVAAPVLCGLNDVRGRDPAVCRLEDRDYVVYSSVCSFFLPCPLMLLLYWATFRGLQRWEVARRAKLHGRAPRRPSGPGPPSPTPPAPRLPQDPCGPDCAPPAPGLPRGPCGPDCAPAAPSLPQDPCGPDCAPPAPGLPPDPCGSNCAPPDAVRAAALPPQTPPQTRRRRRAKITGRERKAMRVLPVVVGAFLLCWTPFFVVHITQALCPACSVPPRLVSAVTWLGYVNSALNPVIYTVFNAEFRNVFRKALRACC
Description: D4 radioligand receptor binding assay ([3H] YM-09151-2). Conditions: compound 10^−7 M, singlicate; membranes from CHO cells; [3H] YM-09151-2 0.15-0.25 nM. The method, then: D4 Radioligand Receptor Binding Assay
Membranes from CHO cells, expressing D4 human receptors were suspended in incubation buffer.
Binding assays were performed in MultiProbe 204 pipetting system (Packard), according to a predetermined mapping, consistent with the software Screen. The compounds were tested in singlicate at one concentration (10^−7 M) in a total volume of 1000 μl (980 μl of diluted membranes, 10 μl DMSO or unlabelled ligand, and 10 μl of [^3H] YM-09151-2 (0.15-0.25 nM). After incubation for 120 minutes at 27° C., the reaction was stopped by rapid filtration through Tomtec Cell Harvester (48 wells) using Filtermat B (presoaked in 0.1% PEI) filters. Filters were washed with ice-cold 50 mM Tris-HCl (pH 7.4) buffer (9×700 μl), dried, covered with MeltiLex B/HS (Wallac) scintillator sheets and heated in oven at 80° C.-90° C. for about 10 minutes, transferred into plastic sample bags (Wallac), sealed and put into 1024 Beta Plate scintillation counter (Wallac). Non-specific binding was determined in the presence of clozapine dissolved in DMSO to a final concentration of 10^−5 M.
The specific radioligand binding to the receptor was defined by the difference between total binding and non-specific binding, determined in the presence of an excess of unlabelled ligand. Results were expressed as percentage of control specific binding obtained in the presence of the compounds.

Where [4] appears, read: membranes from CHO cells, [3H]-8-OH-DPAT, one binding site model, read-out: 5-HT1A Receptor Binding IC50.

This passage reports inhibition and IC50 results from patent US6586435B2, “Benzimidazolone derivatives displaying affinity at the serotonin and dopamine receptors” (Boehringer Ingelheim Pharma KG, priority 2000, dated 2003).

Like-named read-outs stand apart in the source and are kept apart here.

A word on the inhibition: it is the drop in the measured response relative to a control, in per cent. For orientation: IC50 means the concentration that inhibits the measured activity by half.

As to `O=c1n(C/C=C/CN2CCN(c3ccccc3)CC2)c2ccccc2n1CC1CCCCC1` [Compound 120], the figures for the inhibition at 0.1 µM in assay [1] (membranes from CHO cells) and in assay [3] were 98% and 49%, respectively. In addition, in assay [1] (setting [4]), the IC50 is 6 nM. In addition, the inhibition at 10 µM in assay [2] is 17%.

As to `CCCn1c(=O)n(C/C=C/CN2CCN(c3cccc(C(F)(F)F)c3)CC2)c2ccccc21` [Compound 111], the inhibition at 0.1 µM in assay [1] (membranes from CHO cells) is 94%; in assay [3] it was 32%. Besides, in assay [1] (setting [4]), the IC50 came out at 4.4 nM. Besides, the inhibition at 10 µM in assay [2] was 68%.

`O=c1[nH]c2ccccc2n1C/C=C/CN1CCN(c2cccc(C(F)(F)F)c2)CC1` [Compound 9] displayed an IC50 in assay [1] of 4.8 nM. Further, the inhibition at 0.1 µM was 96% in assay [1] (membranes from CHO cells) and 54% in assay [3]. Moreover, the inhibition at 10 µM in assay [2] is 80%.

Consider `CCCn1c(=O)n(C/C=C/CN2CCN(c3ccccn3)CC2)c2ccccc21` [Compound 106], for which the results for the inhibition at 0.1 µM in assay [1] (membranes from CHO cells) and in assay [3] were 92% and 37%, respectively. For the same compound, the IC50 in assay [1] (setting [4]) came to 7.4 nM. In addition, the inhibition at 10 µM in assay [2] is 68%.

In the case of `Cn1c(=O)n(C/C=C/CN2CCN(c3cccc(Cl)c3)CC2)c2ccccc21` [Compound 90], the inhibition at 0.1 µM is 98% in assay [1] (membranes from CHO cells) and 79% in assay [3]. Further, the IC50 in assay [1] (setting [4]) turned out to be 4.6 nM. Besides, the inhibition at 10 µM in assay [2] was 62%.

For `O=c1n(C/C=C\CN2CCN(c3ccccc3)CC2)c2ccccc2n1CC1CCCCC1` [Compound 69], the inhibition at 0.1 µM in assay [1] (membranes from CHO cells) is 90%; in assay [3] it was 41%. Moreover, the IC50 in assay [1] (setting [4]) was determined as 13 nM. The inhibition at 10 µM in assay [2] came to 52%.
